Read-outs that look alike come from different tables or passages of the source.
Assays:
Type in all cases: cell-based, human
[1] = test system: senescent IMR90 ER:RAS cells (4-OHT-induced); assay: Nuclei count (Hoechst, high content imaging) senolytic assay, oncogene-induced senescence (OIS) model, senescent cells; conditions: Homo sapiens; for viability at 0.4677 µM: log (dose) [M] -6.33, 72 h
In short: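 IMR90 ER:RAS (p14), ±4-OHT 100 nM; cpd 10 nM–10 μM, 10-pt […], 72 h, n=3. Fix formaldehyde, Triton X-100, Hoechst 2 μg/ml final. Readout: imaged nuclei count vs untreated; ouabain positive control.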

[2] = test system: senescent A549 cells (etoposide-induced); assay: Nuclei count senolytic assay, therapy-induced senescence (TIS) model, senescent cells; conditions: Homo sapiens, A549, Senescent cells, mean, read-out: Mean % Cell Survival; for viability at 10 µM: log (dose) [M] -5; for viability at 4.68 µM: log (dose) [M] -5.33; for viability at 2.19 µM: log (dose) [M] -5.66; for viability at 1 µM: log (dose) [M] -6; for viability at 0.468 µM: log (dose) [M] -6.33; for viability at 0.219 µM: log (dose) [M] -6.66; for viability at 0.1 µM: log (dose) [M] -7; for viability at 0.0468 µM: log (dose) [M] -7.33; for viability at 0.0219 µM: log (dose) [M] -7.66; for viability at 0.01 µM: log (dose) [M] -8
In short: (§1)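 Etoposide 100 μM, 48 h, + 3 d standard media → senescent A549; untreated A549 = controls. 24 h post-seeding, cpds 10 nM–10 μM final, 10-pt […], 72 h, n=3. Fix formaldehyde, permeabilise Triton-X100, Hoechst 2 μg/ml, image, count nuclei.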

[3] = test system: non-senescent control A549 cells; assay: Nuclei count senolytic assay, TIS model, non-senescent control cells; conditions: Homo sapiens, A549, Control cells, mean, read-out: Mean % Cell Survival; for viability at 10 µM: log (dose) [M] -5; for viability at 4.68 µM: log (dose) [M] -5.33; for viability at 2.19 µM: log (dose) [M] -5.66; for viability at 1 µM: log (dose) [M] -6; for viability at 0.468 µM: log (dose) [M] -6.33; for viability at 0.219 µM: log (dose) [M] -6.66; for viability at 0.1 µM: log (dose) [M] -7; for viability at 0.0468 µM: log (dose) [M] -7.33; for viability at 0.0219 µM: log (dose) [M] -7.66; for viability at 0.01 µM: log (dose) [M] -8
In short: as §1

[4] = IMR-90, 72 h, Senescent, log (dose) [M] -5, 72 h, mean n=3 (Fig 3C), read-out: Mean % Cell Survival
[5] = IMR-90, 72 h, Senescent, log (dose) [M] -5.33, 72 h, mean n=3 (Fig 3C), read-out: Mean % Cell Survival
[6] = IMR-90, 72 h, Senescent, log (dose) [M] -5.66, 72 h, mean n=3 (Fig 3C), read-out: Mean % Cell Survival
[7] = IMR-90, 72 h, Senescent, log (dose) [M] -6, 72 h, mean n=3 (Fig 3C), read-out: Mean % Cell Survival
[8] = IMR-90, 72 h, Senescent, mean n=3 (Fig 3C), read-out: Mean % Cell Survival
[9] = IMR-90, 72 h, Senescent, log (dose) [M] -6.66, 72 h, mean n=3 (Fig 3C), read-out: Mean % Cell Survival
[10] = IMR-90, 72 h, Senescent, log (dose) [M] -7, 72 h, mean n=3 (Fig 3C), read-out: Mean % Cell Survival
[11] = IMR-90, 72 h, Senescent, log (dose) [M] -7.33, 72 h, mean n=3 (Fig 3C), read-out: Mean % Cell Survival
[12] = IMR-90, 72 h, Senescent, log (dose) [M] -7.66, 72 h, mean n=3 (Fig 3C), read-out: Mean % Cell Survival
[13] = IMR-90, 72 h, Senescent, log (dose) [M] -8, 72 h, mean n=3 (Fig 3C), read-out: Mean % Cell Survival

Compound | viability at 10 µM [1, 4] [%] | viability at 4.677 µM [1, 5] [%] | viability at 2.188 µM [1, 6] [%] | viability at 1 µM [1, 7] [%] | viability at 0.4677 µM [1, 8] [%] | viability at 0.2188 µM [1, 9] [%] | viability at 0.1 µM [1, 10] [%] | viability at 0.04677 µM [1, 11] [%] | viability at 0.02188 µM [1, 12] [%] | viability at 0.01 µM [1, 13] [%] | viability at 10 µM [2] [%] | viability at 4.68 µM [2] [%] | viability at 2.19 µM [2] [%] | viability at 1 µM [2] [%] | viability at 0.468 µM [2] [%] | viability at 0.219 µM [2] [%] | viability at 0.1 µM [2] [%] | viability at 0.0468 µM [2] [%] | viability at 0.0219 µM [2] [%] | viability at 0.01 µM [2] [%] | further results
CO[C@H]1C[C@@H]2CC[C@@H](C)[C@@](O)(O2)C(=O)C(=O)N2CCCC[C@H]2C(=O)O[C@H]([C@H](C)C[C@@H]2CC[C@@H](O)[C@H](OC)C2)CC(=O)[C@H](C)/C=C(\C)[C@@H](O)[C@@H](OC)C(=O)[C@H](C)C[C@H](C)/C=C/C=C/C=C/1C [Rapamycin, rapamycin, reference compound] | 98.4 | 103 | 114 | 90.6 | 101 | 97.8 | 92.6 | 105 | 93.9 | 92 | 212 | 215 | 208 | 228 | 246 | 228 | 250 | 249 | 69.5 | 93.7 | viability at 10 µM ([1]; IMR-90, Senescent cells, log (dose) [M] -5, individual replicates, SUP FIG 4C, read-out: % Cell Survival): 94.1%; viability at 4.677 µM ([1]; IMR-90, Senescent cells, log (dose) [M] -5.33, individual replicates, SUP FIG 4C, read-out: % Cell Survival): 113%; viability at 0.2188 µM ([1]; IMR-90, Senescent cells, log (dose) [M] -6.66, individual replicates, SUP FIG 4C, read-out: % Cell Survival): 104%; viability at 0.1 µM ([1]; IMR-90, Senescent cells, log (dose) [M] -7, individual replicates, SUP FIG 4C, read-out: % Cell Survival): 95.9%; viability at 0.04677 µM ([1]; IMR-90, Senescent cells, log (dose) [M] -7.33, individual replicates, SUP FIG 4C, read-out: % Cell Survival): 107%; viability at 0.02188 µM ([1]; IMR-90, Senescent cells, log (dose) [M] -7.66, individual replicates, SUP FIG 4C, read-out: % Cell Survival): 102%; viability at 0.01 µM ([1]; IMR-90, Senescent cells, log (dose) [M] -8, individual replicates, SUP FIG 4C, read-out: % Cell Survival): 88.4%; viability at 10 µM [3]: 74.6%; viability at 4.68 µM [3]: 60.2%; viability at 2.19 µM [3]: 54%; viability at 1 µM [3]: 104%; viability at 0.468 µM [3]: 117%; viability at 0.219 µM [3]: 122%; viability at 0.1 µM [3]: 128%; viability at 0.0468 µM [3]: 102%; viability at 0.0219 µM [3]: 117%; viability at 0.01 µM [3]: 116%
CO[C@H]1C[C@@H]2CC[C@@H](C)[C@@](O)(O2)C(=O)C(=O)N2CCCC[C@H]2C(=O)O[C@H]([C@H](C)C[C@@H]2CC[C@H](n3cnnn3)[C@H](OC)C2)CC(=O)[C@H](C)/C=C(\C)[C@@H](O)[C@@H](OC)C(=O)[C@H](C)C[C@H](C)/C=C/C=C/C=C/1C [Zotarolimus, zotarolimus, reference compound] | 111 | 115 | 102 | 113 | 95.4 | 95.9 | 88.4 | 106 | 116 | 104 | 138 | 160 | 123 | 143 | 130 | 174 | 155 | 136 | 127 | 84.3 | viability at 10 µM [3]: 84.8%; viability at 4.68 µM [3]: 92.5%; viability at 2.19 µM [3]: 84.4%; viability at 1 µM [3]: 76.7%; viability at 0.468 µM [3]: 92.9%; viability at 0.219 µM [3]: 91%; viability at 0.1 µM [3]: 95.4%; viability at 0.0468 µM [3]: 98.8%; viability at 0.0219 µM [3]: 96.8%; viability at 0.01 µM [3]: 109%
O=c1oc2c(O)c(O)cc3c(=O)oc4c(O)c(O)cc1c4c23 [Ellagic acid, ellagic acid] | 109 | 104 | 113 | 110 | 123 | 122 | 117 | 122 | 114 | 113 | 187 | 175 | 203 | 186 | 193 | 167 | 209 | 241 | 81.3 | 84.4 | viability at 2.188 µM ([1]; IMR-90, Senescent cells, log (dose) [M] -5.66, individual replicates, SUP FIG 4C, read-out: % Cell Survival): 108%; viability at 1 µM ([1]; IMR-90, Senescent cells, log (dose) [M] -6, individual replicates, SUP FIG 4C, read-out: % Cell Survival): 117%; viability at 10 µM [3]: 90.6%; viability at 4.68 µM [3]: 76.6%; viability at 2.19 µM [3]: 114%; viability at 1 µM [3]: 78.9%; viability at 0.468 µM [3]: 39.9%; viability at 0.219 µM [3]: 77.2%; viability at 0.1 µM [3]: 65.1%; viability at 0.0468 µM [3]: 99%; viability at 0.0219 µM [3]: 94.5%; viability at 0.01 µM [3]: 109%
